In patent US11739318B1, “Modified biosensors and biocatalysts and methods of use” (priority 2017, dated 2023):

Legend:
PcaU1.2 = test: Specificity evaluation of PcaU1.2 sensor against similar aromatic molecules; type: cell-based, P. putida; conditions: relative to PCA response
Method: For specificity evaluation of the biosensor, PcaU1.2 was tested against molecules with similar functional groups, namely benzoate, 4-hydroxybenzoate (4HB), and catechol. The tested molecules were relatively smaller than PCA, to eliminate any rejection of the molecule from the binding pocket due to steric hindrance.

PobR-DM [1] = test: Whole cell biosensing of 4HB and benzoate with PobR-DM sensor plasmid; type: cell-based; conditions: P. putida with pPobR
Method: Whole cell biosensing of 4HB and benzoate: For 4HB sensing activity of the whole cell biosensor, a small scoop of pPobR transformed P. putida cells from a streaked plate or a glycerol stock was grown overnight as a seed culture. The overnight saturated seed culture was then diluted 100-fold in fresh growth medium, grown for 5-6 h at 30° C. to achieve an OD600 of ˜0.6, then distributed in deep 96-well blocks in a volume of 300-500 μL and induced with varying concentrations of 4HB or benzoate. The cultures were grown overnight (14-16 h) under vigorous shaking in a deep-well shaker (Taitec BioShakerM-BR-022UP). The cultures were diluted 100-fold in phosphate-buffered saline (PBS) with 1% sucrose and analyzed using an LSR II flow cytometer (BD Biosciences) or Accuri C6 flow cytometer (BD Biosciences) with standard settings for measurement of GFP fluorescence (ex 488 nm, em ˜530/30 nm). The arithmetic mean fluorescence value of ˜100,000 cells tightly gated based on forward and side scatter (FSC vs SSC) was used for a dose-response plot. Same protocol was followed for comparison of UbiC clones.

UbiC = UbiC (Escherichia coli, UniProt P26602); conditions: cited from earlier work
Chain of UbiC (P26602 whole entry): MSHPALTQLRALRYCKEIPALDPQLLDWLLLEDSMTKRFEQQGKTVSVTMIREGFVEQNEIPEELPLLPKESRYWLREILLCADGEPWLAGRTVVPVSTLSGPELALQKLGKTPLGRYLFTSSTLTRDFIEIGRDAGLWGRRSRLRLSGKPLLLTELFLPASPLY

PobR-DM [2] = conditions: protocatechuate only at 1000-fold greater concentration than 4HB; cited from earlier work

SMILES	activation of the PcaU1.2 sensor (PcaU1.2)	response of the PobR-DM sensor in E. coli (PobR-DM [2])	also measured
O=C(O)c1ccc(O)cc1 [4HB, 4-hydroxybenzoic acid]	Low but measurable activation	–	–
O=C(O)c1ccccc1 [benzoate]	Low but measurable activation	–	response of the whole cell 4HB biosensor (PobR-DM [1]): did not show any response; Ki (UbiC; inhibitor of UbiC): > 3 mM; affinity weaker / Kp higher than 4HB (UbiC; product inhibition of UbiC): 1000 fold
Oc1ccccc1O [catechol]	a signal that was an appreciable fraction of PCA response	–	–
O=[N+]([O-])c1ccc(O)cc1 [p-nitrophenol]	–	does not respond	–
O=C(O)c1ccc(O)c(O)c1 [protocatechuate, 3,4-dihydroxybenzoate]	–	very weakly responds	–
